Measurements: patent US12582706B2, “Tolerogenic antigen presenting cells” (Cell4Cure AB, priority 2019, dated 2026)

System: DCs
Assay: DC expression of CD83 (flow cytometry)
Type: cell-based, human
Details: Example 13, FIG. 13(A); C1 10 nM, TGFbeta 10 ng/ml, RA 2 uM; compared to control DCs
Method: CD14^+ monocytes were cultured at 1.25×10^6 cells/mi for 7 days in GMP DC Medium (CellGenix, Freiburg, Germany) containing HEPES, GlutaMAX and Penicillin-Streptomycin solution (Thermo Fisher, Waltham, MA) in the presence of granulocyte-macrophage colony-stimulating factor (GM-CSF; 100 ng/ml; PeproTech, London, UK) and interleukin-4 (IL-4; 100 ng/ml; PeproTech). Cells were replenished on day 3 with fresh medium and cytokines. […]
Cell surface expression was investigated using the following fluorescently labeled antibodies: CD11c (B-Ly6), CD83 (HB15e), CD86 (BU63), ILT3 (ZM4.1), CD141 (M80), GARP (7611), CD103 (B-Ly7), MERTK (590H11G1E3), BTLA (J168-540), CD49b (P1E6-05), HLA-G (87G), LAP (FNLAP), from BD Biosciences (Franklin Lakes, NJ), BioLegend (San Diego, CA) and Thermo Fisher. DCs were washed and resuspended in staining buffer (phosphate-buffered saline supplemented with 0.5% BSA and 2 mM EDTA) and incubated with antibody for 20 min followed by washing before acquisition on a MACSQuant 10 flow cytometer (Miltenyi Biotec) and analyzed using FlowJo software (BD Biosciences). […]

`CCN(C(=O)c1c(O)c2c(Cl)cccc2n(C)c1=O)c1ccccc1` [AhR agonist, N-ethyl-N-phenyl-5-chloro-1,2-dihydro-4-hydroxy-1-methyl-2-oxo-quinoline-3-carboxamide] was tested, and the “CD83 expression (MFI) on DCs” value was “lower expression”.
